Assay results published in US10786450B2, “Process for preparing a dry powder formulation comprising an anticholinergic, a corticosteroid and a beta-adrenergic” (CHIESI FARMACEUTICI S.p.A., priority 2017, dated 2020).

What was measured:
[1] = Aerosol performance by Next Generation Impactor (NGI) from multidose dry powder inhaler; assay type: physicochemical; settings: Example 3 powder formulation; for Mid Fine particle Fraction: 2.0 to 5.0 microns; for Delivered Dose: multidose DPI of WO 2004/012801, 3 doses; for Mid Fine Particle Mass: particle size between 2.0 and 5.0 microns; for Fine Particle Mass: particle size equal to or lower than 5.0 microns; for Fine Particle Fraction: ratio fine particle mass to delivered dose
Source text: After aerosolization of 3 doses from the inhaler device, the NGI apparatus was disassembled and the amounts of drug deposited in the stages were recovered by washing with a solvent mixture and then quantified by High-Performance Liquid Chromatography (HPLC). […] (v) the fine particle fraction (FPF) which is the ratio between the fine particle mass and the delivered dose; and (vi) the MMAD.

[2] = micronized active ingredient as used in Example 3
Procedure: The size of the particles active is determined by measuring the characteristic equivalent sphere diameter, known as volume diameter, by laser diffraction.
Microparticles as obtained in Example 2 were used. […] Beclometasone dipropionate (BDP) having the following particle size was used: d(v0.1)=0.7 micron; d(v0.5)=1.5 micron; and d(v0.9)=2.8 micron.

Structure (SMILES)	Extrafine Particle Fraction <1 μm [1]	Extrafine Particle Fraction <2 μm [1]	Extrafine Particle Mass <1 μm [1]	Extrafine Particle Mass <2 μm [1]	MMAD [1]	Mid Fine particle Fraction [1]	Delivered Dose [1]	Mid Fine Particle Mass [1]	Fine Particle Mass [1]	Fine Particle Fraction [1]	d(v0.1) [2]	d(v0.5) [2]	d(v0.9) [2]
C[N+]1(C)CCC(OC(=O)C(O)(c2ccccc2)C2CCCC2)C1 (racemic) [GB, glycopyrronium bromide]	9.8%	26.4%	1.1 µg	2.9 µg	1.9 μm	21.6%	11.1 µg	2.4 µg	5.4 µg	48.1%			
CCC(=O)OCC(=O)[C@@]1(OC(=O)CC)[C@@H](C)C[C@H]2[C@@H]3CCC4=CC(=O)C=C[C@]4(C)[C@@]3(Cl)[C@@H](O)C[C@@]21C [BDP, beclometasone dipropionate]	13.9%	32.1%	12.4 µg	28.5 µg	1.6 μm	17.1%	88.5 µg	15.2 µg	43.6 µg	49.3%	0.7 micron	1.5 micron	2.8 micron
